Source: PubChem BioAssay (NCI)
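Following 48 hours of exposure in 96-well plates, responses at five concentrations were used to interpolate endpoints linearly. TGI marks complete inhibition of growth.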

How the values were obtained:
Assay in all cases: inhibition of tumour cell growth, NCI panel, 48 h
[1] = system: IGROV1 ovarian
[2] = system: OVCAR-3 ovarian
[3] = system: HCT-116 colon
[4] = system: SW-620 colon
[5] = system: HCC-2998 colon
[6] = system: KM12 colon
[7] = system: SK-MEL-28 melanoma
[8] = system: CAKI-1 renal
[9] = system: K-562 leukemia
[10] = system: MOLT-4 leukemia
[11] = system: EKVX NSCLC
[12] = system: M14 melanoma
[13] = system: HCT-15 colon
[14] = system: DMS 273 small cell lung
[15] = system: COLO 205 colon
[16] = system: SR leukemia
[17] = system: DMS 114 small cell lung
[18] = system: A549 NSCLC
[19] = system: U251 CNS
[20] = system: DLD-1 colon
[21] = system: OVCAR-5 ovarian
[22] = system: SF-539 CNS
[23] = system: RPMI-8226 leukemia
[24] = system: NCI-H226 lung
[25] = system: ACHN renal
[26] = system: OVCAR-8 ovarian
[27] = system: SK-MEL-2 melanoma
[28] = system: SF-268 CNS
[29] = system: SK-OV-3 ovarian
[30] = system: TK-10 renal
[31] = system: HT29 colon
[32] = system: MALME-3M melanoma
[33] = system: UO-31 renal
[34] = system: NCI-H460 lung
[35] = system: LOX IMVI melanoma
[36] = system: SN12C renal
[37] = system: UACC-62 melanoma
[38] = system: XF 498 CNS
[39] = system: RXF 393 renal
[40] = system: OVCAR-4 ovarian
[41] = system: HOP-18 NSCLC
[42] = system: CCRF-CEM leukemia
[43] = system: KM20L2 colon
[44] = system: NCI-H23 lung
[45] = system: HOP-92 NSCLC
[46] = system: M19-MEL melanoma
[47] = system: NCI-H522 lung
[48] = system: HOP-62 NSCLC
[49] = system: LXFL 529 NSCLC
[50] = system: 786-0 renal
[51] = system: SK-MEL-5 melanoma
[52] = system: SNB-19 CNS
[53] = system: A498 renal
[54] = system: SF-295 CNS
[55] = system: SNB-75 CNS
[56] = system: HL-60(TB) leukemia
[57] = system: UACC-257 melanoma
[58] = system: SNB-78 CNS

Measured: TGI

O=C(O)c1cc2c(ncc3c(=O)n(-c4ccccc4)[nH]c32)s1
> 100 µM: [1] | [2] | [3] | [4] | [5] | [6] | [7] | [8] | [9] | [10] | [11] | [12] | [13] | [14] | [15] | [16] | [17] | [18] | [19] | [20] | [21] | [22] | [23] | [24] | [25] | [26] | [27] | [28] | [29] | [30] | [31] | [32] | [33] | [34] | [35] | [36] | [37] | [38] | [39] | [40] | [41] | [42] | [43] | [44] | [45] | [46] | [47] | [48] | [49]

N#CC(C#N)=C1NC(=O)CC(=O)N1
> 100 µM: [1] | [2] | [3] | [4] | [5] | [6] | [8] | [50] | [9] | [10] | [11] | [12] | [13] | [14] | [51] | [15] | [16] | [17] | [52] | [18] | [19] | [20] | [21] | [22] | [23] | [24] | [53] | [26] | [28] | [29] | [30] | [31] | [54] | [32] | [55] | [56] | [33] | [34] | [35] | [36] | [37] | [38] | [39] | [40] | [57] | [42] | [43] | [44] | [45] | [58] | [46] | [47] | [48] | [49]
